Experimental data: patent publication US20120076766A1, “Topical drug delivery system with dual carriers” (priority 2010, published 2012)

Key:
HL-60 cells = conditions: cited from earlier work
MRSA = assay: Study III: human field study, diabetic foot lesion with cellulitus; type: in vivo; conditions: IV, for MRSA, 8 days following admission
Method: In this embodiment, the additional ingredient to hasten a third therapeutic tissue healing effect was added. This embodiment used vitamin D in a small but medically efficacious amount.

Compound | amount at which results (desired cellular responses) occurred (HL-60 cells) | subsequent retinoid-induced TGM2 expression (HL-60 cells; priming of the cells by pretreatment) | patient response to treatment (MRSA)
C[S+](C)[O-] [DMSO, dimethyl sulfoxide] | less than 2% |  | 
vitamin D | about 100 nM | increases | 
CN[C@H](CC(C)C)C(=O)N[C@H]1C(=O)N[C@@H](CC(N)=O)C(=O)N[C@H]2C(=O)N[C@H]3C(=O)N[C@H](C(=O)N[C@H](C(=O)O)c4cc(O)cc(O)c4-c4cc3ccc4O)[C@H](O)c3ccc(c(Cl)c3)Oc3cc2cc(c3O[C@@H]2O[C@H](CO)[C@@H](O)[C@H](O)[C@H]2O[C@H]2C[C@](C)(N)[C@H](O)[C@H](C)O2)Oc2ccc(cc2Cl)[C@H]1O [vancomycin, Vancomycin] |  |  | did not respond
